{"source": "patent US20250195474A1", "about": "“Piezo Inhibition for Wound Healing” (priority 2022, published 2025)", "key": {"dorsal excisional wounds": {"test_system": "dorsal excisional wounds", "assay": "Splinted dorsal excisional wounding with inhibitor injected at POD 0", "format": "in vivo, mouse"}, "wounds": {"test_system": "wounds", "assay": "CODEX spatial protein analysis of POD 14 wounds", "format": "in vivo, mouse", "details": "POD 14, vs PBS", "description": "To spatially phenotype the pig specimens, we used Co-Detection by Indexing (CODEX), a novel assay in which markers are labeled with oligonucleotide-conjugated antibodies and iteratively imaged between cyclic additions and washouts of dye-labeled oligonucleotides. A custom CODEX panel was designed to assess wound cells within the tissue see Table 1). In brief, primary antibodies were individually barcoded and validated using the commercial supplier's protocols. OCT for mouse or paraffin blocks for human xenograft (n=3 per group) were sectioned at 8 μm thickness onto coverslips for CODEX antibody staining. Antigens were retrieved by standard citrate-EDTA processing prior to addition of CODEX antibodies. Using a CODEX-integrated Keyence BZ-X instrument (Akoya Biosciences) image acquisition was then performed. Using software from Akoya Biosciences the raw images were process, with cell segmentation, and rendering.\nThe CODEX was visualized using Akoya Biosciences Multiplex Analysis Viewer (MAV) in ImageJ. The resulting .fcs files were then concatenated in FlowJo and imported into the Monocle3 and STvEA R packages for further analysis. After debris removal, the processed UMAP manifold was analyzed through Monocle3 with a post-manifold threshold of >10,000 cells per cluster. Analysis of the protein staining patterns was then used to assign cell types. The cell interactions were then inferred using STvEA for cell types at >2.5% of total abundance at k=20 nearest neighbors to quantify cell spatial interactions, and differential interaction maps were generated using graph scores."}, "[1]": {"test_system": "human xenograft fibroblasts", "assay": "scRNA-seq of human xenograft wounds at POD 14", "format": "in vivo", "procedure": "To assess if P1i acts on similar fibroblast clusters to cause regeneration, scRNA-seq analysis was performed on xenografts harvested at POD 14 post injury using a hybrid human-mouse xeno-transcriptome (FIG. 12A). Mouse cells were removed informatically and subsequent analysis focused exclusively on human cells (FIG. 41A). Partitional analysis identified 8 transcriptionally distinct clusters (FIG. 12B-C), corresponding to fibroblast and keratinocyte populations (FIG. 41A). Each cluster was present in all three treatment conditions but Cluster 3 was elevated in P1i treated wounds (FIG. 12D, FIG. 41B). […] This cluster was also enriched for pathways such as “skin morphogenesis”, as well as “neural crest differentiation” (FIG. 12G). By contrast, Cluster 0 was enriched for pathways related to adipocyte differentiation (FIG. 41C) and elevated expression of genes related to adipocyte-fibroblast transition (FIG. 41C) including expression of JUN a transcription factor associated with fibrosis (FIG. 41D)."}, "TRPC6": {"molecular_target": "T1, TRPC6 (Homo sapiens, UniProt Q9Y210)", "T1 sequence (Q9Y210 1-931)": "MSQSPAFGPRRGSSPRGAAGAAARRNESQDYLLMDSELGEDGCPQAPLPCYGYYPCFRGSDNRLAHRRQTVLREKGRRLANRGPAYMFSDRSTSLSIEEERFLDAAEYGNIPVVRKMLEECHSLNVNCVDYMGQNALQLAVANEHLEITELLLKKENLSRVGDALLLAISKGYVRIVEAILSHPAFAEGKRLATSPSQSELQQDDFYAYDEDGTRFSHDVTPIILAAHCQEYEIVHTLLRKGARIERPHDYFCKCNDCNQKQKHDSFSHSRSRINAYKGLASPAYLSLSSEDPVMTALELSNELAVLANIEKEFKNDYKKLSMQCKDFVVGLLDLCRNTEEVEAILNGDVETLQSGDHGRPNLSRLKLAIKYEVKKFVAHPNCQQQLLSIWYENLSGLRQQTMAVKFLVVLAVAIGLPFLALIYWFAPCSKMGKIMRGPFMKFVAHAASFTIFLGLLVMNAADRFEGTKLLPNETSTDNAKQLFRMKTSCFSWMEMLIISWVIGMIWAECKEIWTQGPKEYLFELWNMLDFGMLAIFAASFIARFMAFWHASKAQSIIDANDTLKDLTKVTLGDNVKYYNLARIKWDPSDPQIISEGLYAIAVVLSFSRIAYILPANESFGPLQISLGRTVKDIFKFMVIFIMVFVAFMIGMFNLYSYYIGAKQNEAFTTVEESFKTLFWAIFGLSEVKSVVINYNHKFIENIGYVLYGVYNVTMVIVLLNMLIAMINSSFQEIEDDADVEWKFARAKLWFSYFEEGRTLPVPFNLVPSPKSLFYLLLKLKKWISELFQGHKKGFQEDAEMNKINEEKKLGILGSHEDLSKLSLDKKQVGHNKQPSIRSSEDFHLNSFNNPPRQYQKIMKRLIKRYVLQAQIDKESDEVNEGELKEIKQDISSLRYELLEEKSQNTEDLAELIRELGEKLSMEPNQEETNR", "details": "cited from earlier work"}, "mouse adipocytes": {"test_system": "mouse adipocytes", "assay": "Mouse adipocyte-populated collagen I hydrogels with or without mechanical stretch", "details": "10% equibiaxial strain, 7 days; GsMTx4 500 nM, D-GsMTx4 500 nM, PF573228 10 uM, Verteporfin 300 nM"}}, "note": "No end group written: not given here."}
{"substance": "GsMTx4 (GCLEFWWKCNPNDDKCCRPKLKCSKLFKLCNFSF; ends and bridges not checked; cysteine pairing not given here; UniProt Q7YT39 47-80, looked up) [P1i]", "values": [{"measurement": "time to complete wound re-epithelialization", "setting": "dorsal excisional wounds; 30 uL of 0.2 mg/ml intradermal at wound edge, POD 0", "result": "did not significantly affect"}, {"measurement": "Oil Red O staining and IF for cytokeratins 14/19 (regenerating appendages)", "setting": "dorsal excisional wounds; POD 14", "result": "presence of putative regenerating sebaceous glands/HF"}, {"measurement": "mechanical properties (tensile testing, Young's modulus)", "setting": "dorsal excisional wounds; POD 14", "result": "reverted scars to more unwounded-like mechanical properties"}, {"measurement": "adipocyte-derived fibroblasts (ADFs) in wounds", "setting": "dorsal excisional wounds; POD 14, FACS and histology", "result": "absent"}, {"measurement": "structures consistent with unerupted hair follicles", "setting": "dorsal excisional wounds; POD 14, single injection at POD 0", "result": "numerous structures morphologically consistent with unerupted hair follicles"}, {"measurement": "Col1 and α-SMA", "setting": "dorsal excisional wounds; POD 14 and POD 30", "result": "reduced"}, {"measurement": "ECM density", "setting": "dorsal excisional wounds; POD 14 and POD 30", "result": "less dense"}, {"measurement": "hair follicle formation", "setting": "dorsal excisional wounds; POD 30", "result": "allowed for hair follicle formation"}, {"measurement": "Lef1 (new hair follicle formation)", "setting": "wounds", "result": "highly expressed"}, {"measurement": "adipocyte-fibroblast spatial interactions (CODEX)", "setting": "wounds", "result": "reduced adipocyte-fibroblast interactions"}, {"measurement": "individual adipocyte-fibroblast subpopulation interactions (CODEX)", "setting": "wounds", "result": "enriching the interactions of adipocyte cluster 2 with fibroblast clusters 2 and 4"}, {"measurement": "expression of TWIST2, WNT5A, CALU and SFRP2", "setting": "[1]; POD 14", "result": "highly expressed"}, {"measurement": "representation of human cluster 3", "setting": "[1]; POD 14", "result": "elevated"}, {"measurement": "CellChat cluster 0 activity with other clusters", "setting": "[1]; POD 14, vs control wounds", "result": "downregulation"}, {"measurement": "block of TRPC6", "setting": "TRPC6", "result": "blocks"}, {"measurement": "stretch-induced phenotypic switch (losing adiponectin, expressing Col1)", "setting": "mouse adipocytes", "result": "abrogated"}]}
